Entries after “also recorded” stand apart in the source; their conditions may differ. Bridges are numbered along the chain shown (N, C = ends). Where no end group is shown, it is not given here.
Target: T1, homomeric rat ASIC1b (rASIC1b) (Rattus norvegicus, UniProt P55926)
T1 construct: expressed in transfected cells; host or cells: Xenopus laevis oocytes, mRNA microinjected
T1 sequence (P55926 1-559 isoform P55926-3): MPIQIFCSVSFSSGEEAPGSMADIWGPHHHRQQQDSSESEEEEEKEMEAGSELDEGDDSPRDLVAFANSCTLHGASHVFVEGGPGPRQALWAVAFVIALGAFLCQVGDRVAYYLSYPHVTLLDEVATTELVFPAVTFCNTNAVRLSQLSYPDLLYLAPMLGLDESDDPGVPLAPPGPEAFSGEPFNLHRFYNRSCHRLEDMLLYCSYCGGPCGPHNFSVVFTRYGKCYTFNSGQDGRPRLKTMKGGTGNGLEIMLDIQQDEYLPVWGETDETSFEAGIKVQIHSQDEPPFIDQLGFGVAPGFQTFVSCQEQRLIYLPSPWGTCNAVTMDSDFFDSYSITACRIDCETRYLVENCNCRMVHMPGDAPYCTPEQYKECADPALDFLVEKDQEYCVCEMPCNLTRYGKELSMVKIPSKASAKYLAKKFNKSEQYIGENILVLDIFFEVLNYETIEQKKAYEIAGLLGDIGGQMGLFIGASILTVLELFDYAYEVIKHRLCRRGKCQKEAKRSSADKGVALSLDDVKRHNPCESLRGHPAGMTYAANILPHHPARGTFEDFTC
Assay: TEVC recordings, homomeric rASIC1b
Assay type: cell-based
Description: Figure 4 The inhibitory effect of Mamb-AL on other ASIC1-containing channels exceeds that of Mamb. (A,C) Representative current traces showing the effects of various concentrations of Mamb (left panels) and Mamb-AL (right panels) on homomeric rat ASIC1b (rASIC1b) (A) and heteromeric rat ASIC1a/3 (rASIC1a/3) channels (C). Currents were evoked by a pH 5.5 stimulus following a conditioning pH of 7.4, with peptides applied for 30 s prior to the pH stimulus. (B) Dose–response curves for the inhibitory effects of Mamb and Mamb-AL on rASIC1b. Each data point represents measurements from 5 to 7 cells. (D) Bar graph quantifying the inhibitory effects of Mamb and Mamb-AL on rASIC1a/3, shown as a percentage of the corresponding control currents (n = 5). Data are presented as mean ± SEM; * p< 0.05, unpaired t-test. […] Data are shown as mean ± SEM; ns indicates no significant difference vs. control (dotted horizontal line), paired t-test. […]
Whole-cell ASIC currents were measured using the two-electrode voltage clamp (TEVC) method with a GeneClamp 500 amplifier (Axon Instruments, Union City, NJ, USA). […]
Electrophysiological and behavioral data were analyzed using OriginPro 8.6.0 (OriginLab, Washington, DC, USA). […] Statistical significance between the Mamb and Mamb-AL groups was determined using an unpaired t-test. […]

LKCYQHGKVVTCHRDAKFCYHNTGLPFRNLKLILQGCSSSCSETENNKCCSTDRCNK (disulfide 3-19, 12-37, 41-49, 50-55 (inferred)) [Mamb-AL]
greater potency / inhibition of rASIC1b (compared with Mamb): five-fold; also recorded: five times greater potency | IC50 (pH stimulus 5.5, conditioning pH 7.4, peptide applied 30 s before stimulus, Xenopus laevis oocytes, mean ± SEM, 5 to 7 cells): 22 ± 1 nM
